According to ChEMBL document CHEMBL1671782, “Cationic surfactants derived from lysine: effects of their structure and charge type on antimicrobial and hemolytic activities” (J Med Chem, 2011):
In brackets after ≈: the same amount, converted by molar mass. Activity calls are given as the source filed them. The calls are words filed in the database; no cut-off is given here. Peptide text beside a SMILES is read from it. * marks the point of attachment. Lauroyl = CCCCCCCCCCCC(=O)*

Key:
Micrococcus luteus [1] = experiment: Antimicrobial activity against Micrococcus luteus ATCC 9341 at 250 ug/ml at pH 7.4; assay type: functional, organism-based
[2] = test system: Staphylococcus epidermidis; experiment: microbe, parasite or virus in culture; details: ATCC 155-1, 24 h
Description: Antimicrobial activity against Staphylococcus epidermidis ATCC 155-1 assessed as inhibition of visible growth after 24 hrs at pH 7.4

in vitro = details: human, erythrocytes
Description: Toxicity in human erythrocytes assessed as hemolytic activity measured after 10 mins shaking

Bacillus subtilis = experiment: microbe, parasite or virus in culture; details: ATCC 6633, 24 h
Description: Antimicrobial activity against Bacillus subtilis ATCC 6633 assessed as inhibition of visible growth after 24 hrs at pH 7.4

Klebsiella pneumoniae [3] = experiment: Antimicrobial activity against Klebsiella pneumoniae ATCC 9721 at 250 ug/ml at pH 7.4; assay type: functional, organism-based
Staphylococcus aureus [4] = experiment: Antimicrobial activity against Staphylococcus aureus ATCC 25178 at 250 ug/ml at pH 7.4; assay type: functional, organism-based
Micrococcus luteus [5] = experiment: microbe, parasite or virus in culture; details: ATCC 9341, 24 h
Description: Antimicrobial activity against Micrococcus luteus ATCC 9341 assessed as inhibition of visible growth after 24 hrs at pH 7.4

Escherichia coli [6] = details: ATCC 27325
Description: (§1) Antimicrobial activity against Escherichia coli ATCC 27325 assessed as inhibition of visible growth after 24 hrs at pH 7.4

Staphylococcus aureus [7] = experiment: microbe, parasite or virus in culture; details: ATCC 25178, 24 h
Description: Antimicrobial activity against Staphylococcus aureus ATCC 25178 assessed as inhibition of visible growth after 24 hrs at pH 7.4

Candida albicans = experiment: microbe, parasite or virus in culture; details: ATCC 10231, 24 h
Description: Antimicrobial activity against Candida albicans ATCC 10231 assessed as inhibition of visible growth after 24 hrs at pH 7.4

Klebsiella pneumoniae [8] = experiment: microbe, parasite or virus in culture; details: ATCC 9721, 24 h
Description: Antimicrobial activity against Klebsiella pneumoniae ATCC 9721 assessed as inhibition of visible growth after 24 hrs at pH 7.4

Pseudomonas aeruginosa = experiment: microbe, parasite or virus in culture; details: ATCC 9721, 24 h
Description: Antimicrobial activity against Pseudomonas aeruginosa ATCC 9721 assessed as inhibition of visible growth after 24 hrs at pH 7.4

Escherichia coli [9] = experiment: microbe, parasite or virus in culture; details: ATCC 27325, 24 h
Description: as §1

Description for physchem: Dissociation constant, pKa of the compound

In the case of `CCCCCCCCCCCC(=O)NCCCC[C@H](N)C(=O)NCCCCCCNC(=O)[C@@H](N)CCCCNC(=O)CCCCCCCCCCC`, the Activity (Micrococcus luteus [1]) is reported as “inactive”, the MIC [2] is reported as 38 µM (≈ 28 µg/mL) and the HC50 at 10 min (in vitro) is reported as 116 µM. The MIC (Bacillus subtilis) was 308 µM (≈ 227 µg/mL), the Activity (Klebsiella pneumoniae [3]) was “inactive” and the Activity (Staphylococcus aureus [4]) was “inactive”.

With `CCCCCCCCCCCC(=O)N[C@@H](CCCCN)C(=O)NCCCCCCNC(=O)[C@H](CCCCN)NC(=O)CCCCCCCCCCC` the MIC [2] was 77 µM (≈ 56.8 µg/mL), the HC50 at 10 min (in vitro) was 475 µM and the MIC (Micrococcus luteus [5]) was 154 µM (≈ 114 µg/mL). For the same molecule, the MIC (Bacillus subtilis) was 308 µM (≈ 227 µg/mL), the Activity (Klebsiella pneumoniae [3]) was “inactive” and the Activity (Escherichia coli [6]) was “inactive”. The MIC (Staphylococcus aureus [7]) was 154 µM (≈ 114 µg/mL).

`CCCCCCCCCCCC(=O)N[C@@H](CCCNC(=N)N)C(=O)N[C@@H](CCCCN)C(=O)OC` (Lauroyl-Arg-Lys-OMe) gave an MIC [2] of 218 µM (≈ 109 µg/mL), an HC50 at 10 min (in vitro) of 1350 µM and a pKa (physchem) of 10. The MIC (Micrococcus luteus [5]) was 28 µM (≈ 14 µg/mL), the MIC (Bacillus subtilis) was 28 µM (≈ 14 µg/mL) and the MIC (Candida albicans) was 218 µM (≈ 109 µg/mL). It also gave an MIC (Klebsiella pneumoniae [8]) of 218 µM (≈ 109 µg/mL), an MIC (Pseudomonas aeruginosa) of 218 µM (≈ 109 µg/mL) and an MIC (Staphylococcus aureus [7]) of 54 µM (≈ 26.9 µg/mL). The MIC (Escherichia coli [9]) was 218 µM (≈ 109 µg/mL).

For `CCCCCCCCCCCC(=O)N[C@@H](CCCNC(=N)N)C(=O)NCCCC[C@H](N)C(=O)OC`, the MIC [2] was 436 µM (≈ 217 µg/mL), the HC50 at 10 min (in vitro) was 791 µM and the pKa (physchem) was 10. It also gave an MIC (Micrococcus luteus [5]) of 436 µM (≈ 217 µg/mL), an MIC (Bacillus subtilis) of 218 µM (≈ 109 µg/mL) and an MIC (Candida albicans) of 436 µM (≈ 217 µg/mL). The Activity (Klebsiella pneumoniae [3]) was “inactive” and the MIC (Staphylococcus aureus [7]) was 436 µM (≈ 217 µg/mL).

With `CCCCCCCCCCCC(=O)NCCCC[C@H](N)C(=O)NCCCCNCCCNC(=O)[C@@H](N)CCCCNC(=O)CCCCCCCCCCC` the MIC [2] was 142 µM (≈ 109 µg/mL), the HC50 at 10 min (in vitro) was 12 µM and the MIC (Micrococcus luteus [5]) was 142 µM (≈ 109 µg/mL). For the same molecule, the MIC (Bacillus subtilis) was 142 µM (≈ 109 µg/mL), the MIC (Candida albicans) was 285 µM (≈ 218 µg/mL) and the Activity (Klebsiella pneumoniae [3]) was “inactive”. The MIC (Pseudomonas aeruginosa) was 142 µM (≈ 109 µg/mL) and the Activity (Staphylococcus aureus [4]) was “inactive”.

Work on `CCCCCCCCCCCC(=O)NCCCC[C@H](N)C(=O)OC` yielded an MIC [2] of 166 µM (≈ 56.9 µg/mL), an HC50 at 10 min (in vitro) of 391 µM and a pKa (physchem) of 10. The MIC (Micrococcus luteus [5]) was 331 µM (≈ 113 µg/mL), the MIC (Bacillus subtilis) was 331 µM (≈ 113 µg/mL) and the MIC (Candida albicans) was 166 µM (≈ 56.9 µg/mL). It also gave an MIC (Klebsiella pneumoniae [8]) of 331 µM (≈ 113 µg/mL), an MIC (Staphylococcus aureus [7]) of 331 µM (≈ 113 µg/mL) and an MIC (Escherichia coli [9]) of 166 µM (≈ 56.9 µg/mL).

In the case of `CCCCCCCCCCCC(=O)N[C@@H](CCCCN)C(=O)OC`, the MIC [2] is reported as 83 µM (≈ 28.4 µg/mL), the HC50 at 10 min (in vitro) is reported as 199 µM and the pKa (physchem) is reported as 10. The MIC (Micrococcus luteus [5]) was 83 µM (≈ 28.4 µg/mL), the MIC (Bacillus subtilis) was 331 µM (≈ 113 µg/mL) and the MIC (Candida albicans) was 166 µM (≈ 56.9 µg/mL). The MIC (Klebsiella pneumoniae [8]) was 331 µM (≈ 113 µg/mL), the MIC (Pseudomonas aeruginosa) was 331 µM (≈ 113 µg/mL) and the MIC (Staphylococcus aureus [7]) was 166 µM (≈ 56.9 µg/mL). For the same molecule, the MIC (Escherichia coli [9]) was 331 µM (≈ 113 µg/mL).

Molecule `CCCCCCCCCCCC(=O)NCCCC[C@@H](C(=O)NCCCCCCNC(=O)[C@H](CCCCNC(=O)CCCCCCCCCCC)[N+](C)(C)C)[N+](C)(C)C` has an MIC [2] of 16 µM, an HC50 at 10 min (in vitro) of 11 µM and an MIC (Micrococcus luteus [5]) of 67 µM. The MIC (Bacillus subtilis) was 16 µM, the MIC (Candida albicans) was 67 µM and the Activity (Klebsiella pneumoniae [3]) was “inactive”. The MIC (Staphylococcus aureus [7]) was 67 µM.
